Entries after “also recorded” stand apart in the source; their conditions may differ.
Legend:
Type in all cases: cell-based
SN12C = experiment: NCI-60 in vitro tumor cell growth inhibition, SN12C (renal cancer); conditions: Homo sapiens, five concentration levels
Experimental: (§1) All the synthesized thiazoles 3a–k were evaluated by the National Cancer Institute (Bethesda MD) for cytotoxicity against the NCI-60 cell line panel using standard protocols. Initially, the selected derivatives 3c,d,g,h,j,k were tested at a single dose (10^−5 M) on the full panel of approximately 60 human tumor cell lines derived from 9 human cancer cell types, that have been grouped in disease sub-panels including leukemia, non-small-cell lung, colon, central nervous system (CNS), melanoma, ovarian, renal, prostate and breast cancers (data not shown). Compounds 3d and 3k were further selected for full evaluation at five concentration levels (10^−4–10^−8 M).
(§2) The antitumor activity of compounds 3d and 3k was given by three parameters for each cell line: GI50 (the molar concentration of the compound that inhibits 50% net cell growth), TGI (the molar concentration of the compound leading to total inhibition of net cell growth), and LC50 (the molar concentration of the compound that induces 50% net cell death). The average values of mean graph midpoint (MG_MID) were calculated for each of these parameters.

SF-539 = experiment: NCI-60 in vitro tumor cell growth inhibition, SF-539 (CNS cancer); conditions: Homo sapiens, five concentration levels
Experimental: as §1, §2

OVCAR-4 = experiment: NCI-60 in vitro tumor cell growth inhibition, OVCAR-4 (ovarian cancer); conditions: Homo sapiens, five concentration levels
Experimental: as §1, §2

RXF393 = experiment: NCI-60 in vitro tumor cell growth inhibition, RXF393 (renal cancer); conditions: Homo sapiens, RXF 393, five concentration levels
Experimental: as §1, §2

ACHN = experiment: NCI-60 in vitro tumor cell growth inhibition, ACHN (renal cancer); conditions: Homo sapiens, five concentration levels
Experimental: as §1, §2

NCI-H522 = experiment: NCI-60 in vitro tumor cell growth inhibition, NCI-H522 (non-small cell lung cancer); conditions: Homo sapiens, five concentration levels
Experimental: as §1, §2

HT29 = experiment: NCI-60 in vitro tumor cell growth inhibition, HT29 (colon cancer); conditions: Homo sapiens, HT-29, five concentration levels
Experimental: as §1, §2

BT-549 = experiment: NCI-60 in vitro tumor cell growth inhibition, BT-549 (breast cancer); conditions: Homo sapiens, five concentration levels
Experimental: as §1, §2

HCC-2998 = experiment: NCI-60 in vitro tumor cell growth inhibition, HCC-2998 (colon cancer); conditions: Homo sapiens, five concentration levels
Experimental: as §1, §2

786-0 = experiment: NCI-60 in vitro tumor cell growth inhibition, 786-0 (renal cancer); conditions: Homo sapiens, five concentration levels
Experimental: as §1, §2

UACC-62 = experiment: NCI-60 in vitro tumor cell growth inhibition, UACC-62 (melanoma); conditions: Homo sapiens, five concentration levels
Experimental: as §1, §2

[1] = system: normal immortalized human liver cells (Chang); experiment: MTT viability assay, Chang liver cells; conditions: identical conditions to HepG2 (72 h, 0.1–10 μM)
Experimental: Cell growth inhibitory activity of compounds 3d and 3k was also investigated on human HepG2 hepatocarcinoma cells, a cell line not included in the NCI panel and of interest in the drug discovery because provided with a very active microsomal system for detoxification of xenobiotics. Monolayer cultures treated for 72 h with 0.1–10 μM concentrations of the compounds were examined by 3-(4,5-dimethylthiazol-2-yl)-2,5-diphenyltetrazolium bromide (MTT) assay for cell growth. […] Human cell lines of hepatoma HepG2 and Chang liver were purchased from American Type Culture Collection, Rockville, MD, USA. Cells were grown in RPMI supplemented with 2 mM L-glutamine, 10% FBS, 100 U/mL penicillin, 100 μg/mL streptomycin and 5 μg/mL gentamicin. HepG2 culture medium also contained 1.0 mM sodium pyruvate. Cells were maintained in log phase by seeding twice a week at a density of 3 × 10^8 cells/L in humidified 5% CO2 atmosphere, at 37 °C. In all experiments, cells were made quiescent through overnight incubation before the treatment with the compounds or vehicle alone (control cells). No differences were found between cells treated with DMSO 0.1% and untreated cells in terms of cell number and viability. […] Briefly, HepG2 and Chang cells were plated at 5 × 10^4 cells/well in 96-well plates containing 200 μL RPMI. […] The absorbance at 540 nm was measured in a microplate reader (Bio-RAD, Hercules, CA, USA). […]

SF-295 = experiment: NCI-60 in vitro tumor cell growth inhibition, SF-295 (CNS cancer); conditions: Homo sapiens, five concentration levels
Experimental: as §1, §2

KM12 = experiment: NCI-60 in vitro tumor cell growth inhibition, KM12 (colon cancer); conditions: Homo sapiens, five concentration levels
Experimental: as §1, §2

MOLT-4 = experiment: NCI-60 in vitro tumor cell growth inhibition, MOLT-4 (leukemia); conditions: Homo sapiens, five concentration levels 10^−4–10^−8 M
Experimental: as §1, §2

RPMI-8226 = experiment: NCI-60 in vitro tumor cell growth inhibition, RPMI-8226 (leukemia); conditions: Homo sapiens, five concentration levels 10^−4–10^−8 M
Experimental: as §1, §2

SNB-19 = experiment: NCI-60 in vitro tumor cell growth inhibition, SNB-19 (CNS cancer); conditions: Homo sapiens, five concentration levels
Experimental: as §1, §2

MDA-MB-231/ATCC = experiment: NCI-60 in vitro tumor cell growth inhibition, MDA-MB-231/ATCC (breast cancer); conditions: Homo sapiens, five concentration levels
Experimental: as §1, §2

[2] = system: leukemia cancer subpanel cell lines; experiment: NCI-60 screen, leukemia subpanel summary; conditions: Homo sapiens; range over the leukemia subpanel; read-out: GI50 of all the leukemia subpanel cell lines (range)
Experimental: as §1, §2

HS 578T = experiment: NCI-60 in vitro tumor cell growth inhibition, HS 578T (breast cancer); conditions: Homo sapiens, five concentration levels
Experimental: as §1, §2

Cn1cc(-c2csc(-c3cn(C)c4ncccc34)n2)c2ccccc21 [Compound 3d, 1-Methyl-3-[4-(1-methyl-1H-indol-3-yl)-1,3-thiazol-2-yl]-1H-pyrrolo[2,3-b]pyridine] showed a GI50 (SN12C) of 12.1 µM, a GI50 (SF-539) of 180 nM and a GI50 (OVCAR-4) of 7.22 µM. For the same compound, the GI50 (RXF393) was 330 nM, the GI50 (ACHN) was 720 nM and the GI50 (NCI-H522) was 40 nM. For the same compound, the GI50 (HT29) was 250 nM, the GI50 (BT-549) was 470 nM and the GI50 (HCC-2998) was 1130 nM. The GI50 (786-0) was 970 nM, the GI50 (UACC-62) was 300 nM and the “viability of normal immortalized human liver cells (Chang)” value [1] was “did not affect normal immortalized human liver cells (Chang); also recorded: did not substantially impaired viability”. For the same compound, the GI50 (SF-295) was 240 nM, the GI50 (KM12) was 210 nM and the GI50 (MOLT-4) was 670 nM. It also gave a GI50 (RPMI-8226) of 450 nM, a GI50 (SNB-19) of 630 nM and a GI50 (MDA-MB-231/ATCC) of 2820 nM. It also gave a GI50 [2] of 60 to 670 nM and a GI50 (HS 578T) of 590 nM.

Compound Cn1cc(-c2nc(-c3c[nH]c4ccccc34)cs2)c2cccnc21 [Compound 3k, 3-[4-(1H-Indol-3-yl)-1,3-thiazol-2-yl]-1-methyl-1H-pyrrolo[2,3-b]pyridine] has a GI50 (SN12C) of 5.48 µM, a GI50 (SF-539) of 250 nM and a GI50 (OVCAR-4) of 0.52 µM. For the same compound, the GI50 (RXF393) was 520 nM, the GI50 (ACHN) was 510 nM and the GI50 (NCI-H522) was 50 nM. For the same compound, the GI50 (HT29) was 190 nM, the GI50 (BT-549) was 440 nM and the GI50 (HCC-2998) was 1180 nM. The GI50 (786-0) was 720 nM, the GI50 (UACC-62) was 420 nM and the “viability of normal immortalized human liver cells (Chang)” value [1] was “did not affect normal immortalized human liver cells (Chang); also recorded: did not substantially impaired viability”. The GI50 (SF-295) was 310 nM, the GI50 (KM12) was 400 nM and the GI50 (MOLT-4) was 660 nM. For the same compound, the GI50 (RPMI-8226) was 650 nM, the GI50 (SNB-19) was 640 nM and the GI50 (MDA-MB-231/ATCC) was 1290 nM. For the same compound, the GI50 [2] was 120 to 660 nM and the GI50 (HS 578T) was 660 nM.
